Assay results taken from US20020040062A1, “Protein kinase C activators and their use in decreasing expression of cell antigens” (The Trustees of Columbia University, priority 1993, published 2002).
Where two headings read alike, the source gives them in different places. Marks after values point to notes of the source that are not given here.

Experiments:
[1] = test system: MoAb K56; test: FACS analysis of MoAb K56 binding in WiDr human colon carcinoma cells; format: cell-based
Method: Cells were plated in 10 cm plates, media was changed 24 hours later with no addition (control) or addition of the indicated compounds and cells were incubated at 37° C. for the indicated time (72 or 96 hours). Cells were resuspended using 10× EDTA and antigen expression was determined as described (Leon, Mesa-Tejada, Gutierrez, Estabrook, Greiner, Schlom & Fisher: Anticancer Res. 9:1639-1648, 1989; Leon, Gutierrez, Jiang, Estabrook, Waxman & Fisher: Cancer Immunol. Immmunother. 35:315-324, 1992).

[2] = test system: HLA-DR; test: FACS analysis of HLA-DR (MoAb L243) in CBS human colon carcinoma cells; format: cell-based; settings: 96 hours
Method: (§1) Cells were plated in 10 cm plates, media was changed 24 hours later with no addition (control) or addition of the indicated compounds and cells were incubated at 37° C. for 96 hours. Cells were resuspended using 10× EDTA and antigen expression was determined as described (Leon, Mesa-Tejada, Gutierrez, Estabrook, Breiner, Schlom & Fisher: Anticancer Res. 9:1639-1648, 1989; Leon, Gutierrez, Jiang, Estabrook, Waxman & Fisher: Cancer Immuno. Immunother. 35:315-324 1992).

[3] = test system: CA19.9; test: FACS analysis of CA19.9 (MoAb B67.4) in CBS human colon carcinoma cells; format: cell-based; settings: 96 hours
Method: as §1

[4] = test system: T47D cells; test: Dose-range and time-course of antigenic enhancement in T47D cells and effect of H-7; format: cell-based, human
Method: (§2) T47D cells treated with the various compounds were analyzed by flow cytometry using appropriate monoclonal antibody concentrations as described previously. Briefly, 1×10^5 cells were incubated with the test antibody for 30 min at 4° C., washed 3× with PBS and incubated with a goat a mouse F (ab)2 FITC conjugated test antibody at a 1:40 dilution for 30 min at 4° C. Cells were then washed 3× with PBS and analyzed on a FACStar (Beckon Dickinson, Mountain View, Calif.) or a Coulter Epics IV FACS (Coulter, Hialeah, Fla.). Results are expressed as mean fluorescence intensity (MFI) units which were determined as described previously. MFI=(mean channel fluorescence in fluorescence positive antibody-binding cells×% of fluorescence positive antibody-binding cells)−(mean channel fluorescence in unstained cells×% of fluorescence positive cells in the unstained population). All studies were performed a minimum of three or four times with duplicate samples in each experiment.

[5] = test system: ICAM-1; test: FACS analysis of ICAM-1 surface expression in T47D cells; format: cell-based, human; settings: 72 hr; for ICAM-1 level of upregulation versus untreated control cells (equivalent to 1.0): presence or absence of 0.1 μg/ml H-7; for ICAM-1 relative increase in expression versus untreated controls (equivalent to 1.0): presence or absence of 1.0 μg/ml H-7
Text: IgG1 murine monoclonal antibody Cu18 and Cu46 recognize two different epitopes of a highly restricted breast carcinoma associated glycoprotein of Mr 225,000 to 250,000 (BCA 225). This TAA is expressed intracytoplasmically and on the membrane of 94% of breast tumors tested and in the T47D human breast carcinoma cell line. BCA 225 is shed into the culture medium by T47D cells and into the sera of breast cancer patients. IgG2a monoclonal antibody L243 (anti HLA Class II-DR) recognizes a monomorphic HLA Class II-DR-α epitope (ATCC M355). Monoclonal antibody CL203.4 [40], which recognizes ICAM-I, was kindly provided by Dr. S. Ferrone, New York Medical College, NY. The c-erbB-2 monoclonal antibody which recognizes the extracellular domain of c-erbB-2 was obtained from Triton Biosciences, Inc., Alamedia, Calif. Monoclonal antibodies Cu18 and Cu46 were used at 0.05 μg/ml and monoclonal antibodies interacting with HLA Class II-DR, ICAM-1 and c-erbB-2 were used at 10 μg/ml. For each experiment, isotype matched control backgrounds (IgG for Cu18, Cu46 and ICAM-1, IgG2a for HLA Class Ii and IgG2b for c-erbB-2) were subtracted from the experimental results. Background from antimouse IgG FITC antibody was also subtracted from experimental results. Applicants never observed backgrounds higher than 2% of total cells for isotypic mouse IgG or higher than 5% for antimouse IgG FITC.
as §2, with “experiment. Replicate samples within individual experiments varied by ≦10% and variation between experiments were generally ≦20%.” for “experiment.”

[6] = test system: HLA Class I; test: Northern blotting, steady-state HLA Class I mRNA in T47D cells; format: cell-based, human; settings: 72 hr; for increase in HLA class I antigen mRNA levels: 500 units/ml IFN-α or IFN-β, 50 units/ml IFN-γ, 0.1 μg/ml TPA or MEZ, densitometry
Method: FIG. 3: Effect of interferon, ADMB, TPA and MEZ, alone and in combination with H-7, on steady-state mRNA levels of HLA Class I antigens, HLA Class II-DRβ antigen, c-erbB-2, ICAM-1 and GAPDH in T47D human breast carcinoma cells. […] Cultures were also grown in the presence of 0.1 μg/ml of H-7 for 72 hr with and without the additional compounds indicated above. Total cytoplasmic RNA was isolated and processed as described in “Detailed Description Of The Invention.” Control: CON; recombinant human leukocyte interferon-A: IFN-αA; recombinant human fibroblast interferon: IFN-β; recombinant human immune interferon: IFN-γ; ADMB; 3-(N-acetylamino)-5-(N-decyl-N-methylamino)-benzyl alcohol; TPA; 12-0-tetradecanoyl-phorbol-13-acetate; MEZ; mezerein; H-7: (1-(5-isoquinolinesulfonyl)-2-methylpiperazine dihydrochloride.
Steady-state levels of HLA Class I, HLA Class II-DRβ, c-erbB-2 and ICAM-I mRNA in control and treated T47D cells were determined by Northern blotting analysis of total cytoplasmic RNA probed with appropriate ^32P-labeled gene probes as previously described. Northern blots were also probed with a ^32P-labeled glyceraldehyde phosphate dehydrogenase (GAPDH) gene probe to verify equal […] under various experimental conditions. Following hybridization, the filters were washed and exposed for autoradiography.

[7] = T47D cells, preliminary studies, data not shown
[8] = 0.1 μg/ml TPA or MEZ, presence or absence of 0.1 μg/ml H-7, FACStar
[9] = 500 units/ml IFN-β or 50 units/ml IFN-γ
[10] = 500 units/ml IFN-β or 50 units/ml IFN-γ, presence or absence of 1.0 μg/ml H-7, Coulter Epics IV FACS
[11] = 72 Hour Treatment, MEZ 100 ng/ml, IFN-γ 100 U/ml
[12] = 96 Hour Treatment, MEZ 100 ng/ml, IFN-γ 100 U/ml

Row | Molecule | most effective dose inducing upregulation of BCA 225, HLA Class II antigens, ICAM-1 and c-erbB-2 [4, 7] [µg/mL] | ICAM-1 level of upregulation versus untreated control cells (equivalent to 1.0) ([5]; 0.1 μg/ml TPA or MEZ) | Antigenic Expression (MFI) ICAM-1 [5, 8] | ICAM-1 relative increase in expression versus untreated controls (equivalent to 1.0) [5, 9] | Antigenic Expression (MFI) ICAM-1 [5, 10] | increase in HLA class I antigen mRNA levels [6] [fold] | Monoclonal Antibody Binding (MFI) MoAb K56 [1, 11] | Monoclonal Antibody Binding (MFI) MoAb K56 [1, 12] [MFI] | Monoclonal Antibody Binding (MFI) MoAb L243 (HLA-DR) ([2]; MEZ 1100 ng/ml, IFN-γ 100 U/ml) | Monoclonal Antibody Binding (MFI) MoAb B67.4 (CA19.9) ([3]; MEZ 1100 ng/ml, IFN-γ 100 U/ml) | also measured
1 | CCCCCCCCCCN(C)c1cc(CO)cc(NC(C)=O)c1 [ADMB, 3-(N-acetylamino)-5-(N-decyl-N-methylamino)-benzyl alcohol] | 0.1 |  |  |  |  |  |  |  |  |  | Monoclonal Antibody Binding (MFI) MoAb K56 ([1]; 72 Hour Treatment, ADMB 0.01 μg/ml): 844 MFI; Monoclonal Antibody Binding (MFI) MoAb K56 ([1]; 72 Hour Treatment, ADMB 0.1 μg/ml): 715 MFI; Monoclonal Antibody Binding (MFI) MoAb K56 ([1]; 72 Hour Treatment, ADMB 1.0 μg/ml): 879 MFI; Monoclonal Antibody Binding (MFI) MoAb K56 ([1]; 96 Hour Treatment, ADMB 0.01 μg/ml): 827 MFI; Monoclonal Antibody Binding (MFI) MoAb K56 ([1]; 96 Hour Treatment, ADMB 0.1 μg/ml): 1116 MFI; Monoclonal Antibody Binding (MFI) MoAb K56 ([1]; 96 Hour Treatment, ADMB 1.0 μg/ml): 1008 MFI; Monoclonal Antibody Binding (MFI) MoAb L243 (HLA-DR) ([2]; ADMB 0.01 μg/ml): 4112 MFI; Monoclonal Antibody Binding (MFI) MoAb L243 (HLA-DR) ([2]; ADMB 0.1 μg/ml): 3328 MFI; Monoclonal Antibody Binding (MFI) MoAb L243 (HLA-DR) ([2]; ADMB 1.0): 6870* MFI; Monoclonal Antibody Binding (MFI) MoAb B67.4 (CA19.9) ([3]; ADMB 0.01 μg/ml): 3562* MFI; Monoclonal Antibody Binding (MFI) MoAb B67.4 (CA19.9) ([3]; ADMB 0.1 μg/ml): 3473* MFI; Monoclonal Antibody Binding (MFI) MoAb B67.4 (CA19.9) ([3]; ADMB 1.0 g/ml): 3962* MFI
2 | CC1CNCCN1S(=O)(=O)c1cccc2cnccc12.Cl.Cl (stereo not shown) [H-7, 1-(5-isoquinolinesulfonyl)-2-methylpiperazine dihydrochloride] |  | (1.0) | 21,538 MFI | 1.0 | 54,080 MFI |  |  |  |  |  | alteration of HLA class I mRNA levels by H-7 ([6]; 0.1 μg/ml H-7): ≤ 1.2 fold; effect of H-7 on enhancement of BCA 225, HLA Class II antigens and ICAM-1 expression by IFN-β or IFN-γ ([4]; T47D cells, 1.0 μg/ml H-7): did not inhibit; effect of H-7 on increased antigenic expression induced by TPA, MEZ or ADMB ([4]; T47D cells, simultaneous exposure to 0.1 μg/ml H-7): inhibited
3 | C=C(C)[C@@]12O[C@@]3(c4ccccc4)O[C@@H]1[C@@H]1[C@@H]4O[C@]4(CO)[C@@H](O)[C@]4(O)C(=O)C(C)=C[C@H]4[C@@]1(O3)[C@H](C)[C@H]2OC(=O)/C=C/C=C/c1ccccc1 [MEZ, mezerein] | 0.1 | (4.1) | 85,745 MFI |  |  | 1.75 | 964* MFI | 1104 | 9726* MFI | 3288* MFI | 
4 | CCCCCCCCCCCCCC(=O)O[C@@H]1[C@@H](C)[C@@]2(O)[C@@H](C=C(CO)C[C@]3(O)C(=O)C(C)=C[C@@H]23)[C@H]2C(C)(C)[C@]12OC(C)=O [TPA, 12-0-tetradecanoyl-phorbol-13-acetate] |  | (3.0) | 63,175 MFI |  |  | 1.3 |  |  |  |  | most effective dose inducing upregulation of BCA 225, HLA Class II antigens, ICAM-1 and c-erbB-2 [4]: 0.1 µg/mL
5 | IFN-γ: recombinant human immune interferon produced in Escherichia coli (protein, UniProt P01579 24-161, looked up) Interferon gamma: QDPYVKEAENLKKYFNAGHSDVADNGTLFLGILKNWKEESDRKIMQSQIVSFYFKLFKNFKDDQSIQKSVETIKEDMNVKFFNSNKKKRDDFEKLTNYSVTDLNVQRKAIHELIQVMAELSPAAKTGKRKRSQMLFRG |  |  |  | 3.5 | 191,490 MFI | 1.8 | 1046* MFI | 1021 | 14972* MFI | 4970* MFI | activity in increasing Class II HLA-DR antigens relative to ADMB [2]: approximately 2 ×
6 | IFN-β: recombinant human fibroblast interferon with a serine substituted for a cysteine at position 17 (protein, UniProt P01574 22-187, looked up, variant C17S) Interferon beta: MSYNLLGFLQRSSNFQSQKLLWQLNGRLEYCLKDRMNFDIPEEIKQLQQFQKEDAALTIYEMLQNIFAIFRQDSSSTGWNETIVENLLANVYHQINHLKTVLEEKLEKEDFTRGKLMSSLHLKRYYGRILHYLKAKEYSHCAWTIVRVEILRNFYFINRLTGYLRN |  |  |  | 1.8 | 97,013 MFI | 2.1 |  |  |  |  | 
